Experimental data reported in US10723741B1, “DNA polymerase IIIC inhibitors and use thereof” (Acurx Pharmaceuticals, LLC, priority 2018, dated 2020).
Values after ≈ are worked out from the molar mass of the structure shown. Read-outs that look alike come from different tables or passages of the source.

Assays:
Type in all cases: cell-based
[1] = system: Streptococcus pneumoniae ATCC 49619; assay: Broth microdilution MIC, S. pneumoniae ATCC 49619; conditions: ATCC49619, broth microdilution, 37° C., 20 hours, read-out: MIC S. pneumoniae ATCC 49619
Procedure, shortened: (§1)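 Broth microdilution in strain-specific test medium with ~5.0×10^5 cfu/ml inoculum, 1% DMSO and two-fold compound dilutions from 64 to 0.0625 μg/ml. Plates were held 20 hours at 37° C in ambient air. S. pneumoniae colonies were grown beforehand on blood agar in 5% CO2.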

[2] = system: Enterococcus faecalis ATCC 29212; assay: Broth microdilution MIC, E. faecalis ATCC 29212; conditions: ATCC29212, broth microdilution, 37° C., 20 hours, read-out: MIC E. faecalis ATCC 29212
Procedure, shortened: as §1

[3] = system: Staphylococcus aureus ATCC 29213 (MSSA); assay: Broth microdilution MIC, S. aureus ATCC 29213 (MSSA); conditions: broth microdilution, 37° C., 20 hours, read-out: MIC S. aureus ATCC 29213 (MSSA)
Procedure, shortened: as §1

[4] = system: Bacillus subtilis ATCC 6633; assay: Broth microdilution MIC, B. subtilis ATCC 6633; conditions: ATCC6633, broth microdilution, 37° C., 20 hours, read-out: MIC B. subtilis ATCC 6633
Procedure, shortened: as §1

[5] = system: Staphylococcus aureus NRS384 (MRSA); assay: Broth microdilution MIC, S. aureus NRS384 (MRSA); set-up: MIC NRS 384 (MRSA): unit not given here; conditions: broth microdilution, 37° C., 20 hours; for MIC: Staphylococcus aureus
Procedure, shortened: as §1

[6] = system: Enterococcus faecium ATCC 700221 (VRE); assay: Broth microdilution MIC, E. faecium ATCC 700221 (VRE); set-up: MIC E. faecium ATCC 700221 (VRE): unit: ug/mL; conditions: broth microdilution, 37° C., 20 hours; for MIC: Enterococcus faecium
Procedure, shortened: as §1

[7] = system: Escherichia coli ATCC 25922; assay: Broth microdilution MIC, E. coli ATCC 25922 (MHIIB w & w/o 4 mM EDTA); conditions: broth microdilution, 37° C., 20 hours; for MIC: Escherichia coli, ATCC25922, without EDTA, read-out: MIC E. coli ATCC 25922; for MIC E. coli ATCC 25922 + 4 mM EDTA: with 4 mM EDTA
Procedure, shortened: as §1

[8] = read-out: MIC E. faecium ATCC 700221 (VRE)

Row | SMILES | MIC [1] [µg/mL] | MIC [2] [µg/mL] | MIC [3] [µg/mL] | MIC [4] [µg/mL] | MIC ([5]; read-out: MIC NRS 384 (MRSA)) [µg/mL] | MIC [6, 8] [µg/mL] | MIC [7] [µg/mL] | MIC E. coli ATCC 25922 + 4 mM EDTA [7] | MIC ([5]; MHIIB, read-out: MIC against S. aureus NRS 384 (MRSA)) [µg/mL] | MIC ([6]; MHIIB, read-out: MIC against E. faecium ATCC 700221 (VRE)) [µg/mL] | MIC NRS 384 (MRSA) [5] | MIC E. faecium ATCC 700221 (VRE) [6]
1 | COCCOCCn1ncc2nc(NCc3ccc(Cl)c(Cl)c3)[nH]c(=O)c21 [Compound 136, 5-((3,4-Dichlorobenzyl)amino)-1-(2-(2-methoxyethoxy)ethyl)-1H-pyrazolo[4,3-d]pyrimidin-7(6H)-one] | 2 (≈ 4.85 µM) | 4 (≈ 9.7 µM) | 4 (≈ 9.7 µM) | 1 (≈ 2.43 µM) | 4 (≈ 9.7 µM) | 2 (≈ 4.85 µM) | > 64 | >64 µg/mL | – | – | – | –
2 | CC(C)(C)OC(=O)N1CCN(CCOCCn2ncc3nc(NCc4ccc(Cl)c(Cl)c4)[nH]c(=O)c32)CC1 [Compound 166, tert-butyl 4-[2-[2-[5-[(3,4-dichlorophenyl)methylamino]-7-oxo-6H-pyrazolo[4,3-d]pyrimidin-1-yl]ethoxy]ethyl]piperazine-1-carboxylate] | 16 (≈ 28.2 µM) | > 64 | > 64 | 4 (≈ 7.06 µM) | > 64 | 8 (≈ 14.1 µM) | > 64 | >64 µg/mL | – | – | – | –
3 | COCC(OCCn1ncc2nc(NCc3ccc(Cl)c(Cl)c3)[nH]c(=O)c21)c1cccnc1.Cl (centres unmarked) [Compound 185, 5-((3,4-Dichlorobenzyl)amino)-1-(2-(2-methoxy-1-(pyridin-3-yl)ethoxy)ethyl)-1H-pyrazolo[4,3-d]pyrimidin-7(6H)-one hydrochloride] | 8 | 16 | 16 | 4 | 16 | 16 | > 64 | >64. ug/ml | – | – | – | –
4 | COc1ccc(CNc2nc3cnn(C)c3c(=O)[nH]2)cc1OC [Compound 32, 5-((3,4-Dimethoxybenzyl)amino)-1-methyl-1H-pyrazolo[4,3-d]pyrimidin-7(6H)-one] | > 64 | > 64 | > 64 | > 64 | > 64 | > 64 | > 64 | >64 µg/mL | – | – | – | –
5 | Cc1ccc(CNc2nc3cnn(C)c3c(=O)[nH]2)cc1C [Compound 33, 5-((3,4-Dimethylbenzyl)amino)-1-methyl-1H-pyrazolo[4,3-d]pyrimidin-7(6H)-one] | 16 (≈ 56.5 µM) | 32 (≈ 113 µM) | 16 (≈ 56.5 µM) | 8 (≈ 28.2 µM) | 16 (≈ 56.5 µM) | 16 (≈ 56.5 µM) | > 64 | >64 µg/mL | – | – | – | –
6 | CN(C)CC1CN(CCn2ncc3nc(NCc4ccc(Cl)c(Cl)c4)[nH]c(=O)c32)CCO1.Cl.Cl (centres unmarked) [Compound 73, 5-((3,4-Dichlorobenzyl)amino)-1-(2-(2-((dimethylamino)methyl)morpholino)ethyl)-1H-pyrazolo[4,3-d]pyrimidin-7(6H)-one dihydrochloride] | 8 | 16 | 16 | 4 | 16 | 8 | > 64 | >64 µg/mL | – | – | – | –
7 | N#Cc1nn(CCOCCO)c2c(=O)[nH]c(NCc3ccc(Cl)c(Cl)c3)nc12 [Compound 51, 5-((3,4-dichlorobenzyl)amino)-1-(2-(2-hydroxyethoxy)ethyl)-7-oxo-6,7-dihydro-1H-pyrazolo[4,3-d]pyrimidine-3-carbonitrile] | 2 (≈ 4.73 µM) | 2 (≈ 4.73 µM) | 2 (≈ 4.73 µM) | 1 (≈ 2.36 µM) | 2 (≈ 4.73 µM) | 0.5 (≈ 1.18 µM) | > 64 | >64 µg/mL | – | – | – | –
8 | O=c1[nH]c(NCc2ccc(Cl)c(Cl)c2)nc2cnn(CC3CCC3)c12 [Compound 134, 1-(Cyclobutylmethyl)-5-((3,4-dichlorobenzyl)amino)-1H-pyrazolo[4,3-d]pyrimidin-7(6H)-one] | 8 (≈ 21.1 µM) | > 64 | 1 (≈ 2.64 µM) | 0.5 (≈ 1.32 µM) | 1 (≈ 2.64 µM) | 1 (≈ 2.64 µM) | > 64 | >64 µg/mL | ≤ 1 | ≤ 1 | – | –
9 | Cn1ncc2nc(NCc3ccc(F)c(Cl)c3)[nH]c(=O)c21 [Compound 24, 5-((3-Chloro-4-fluorobenzyl)amino)-1-methyl-1H-pyrazolo[4,3-d]pyrimidin-7(6H)-one] | 4 (≈ 13 µM) | > 64 | 8 (≈ 26 µM) | 8 (≈ 26 µM) | 8 (≈ 26 µM) | 8 (≈ 26 µM) | > 64 | >64 µg/mL | – | – | – | –
10 | O=C(Cn1ncc2nc(NCc3ccc(Cl)c(Cl)c3)[nH]c(=O)c21)N1CCOCC1 [Compound 158, 5-((3,4-dichlorobenzyl)amino)-1-(2-morpholino-2-oxoethyl)-1H-pyrazolo[4,3-d]pyrimidin-7(6H)-one] | 4 (≈ 9.15 µM) | 16 (≈ 36.6 µM) | 16 (≈ 36.6 µM) | 8 (≈ 18.3 µM) | 32 (≈ 73.2 µM) | 8 (≈ 18.3 µM) | > 64 | >64 µg/mL | – | – | – | –
11 | O=c1[nH]c(NCc2ccc(Cl)c(Cl)c2)nc2cnn(CC3COCCO3)c12 (centres unmarked) [Compound 105, 1-((1,4-Dioxan-2-yl)methyl)-5-((3,4-dichlorobenzyl)amino)-1H-pyrazolo[4,3-d]pyrimidin-7(6H)-one] | 4 (≈ 9.75 µM) | 8 (≈ 19.5 µM) | 4 (≈ 9.75 µM) | 1 (≈ 2.44 µM) | – | – | > 64 | >64 µg/mL | – | – | 4/2 | 4/2
12 | O=c1[nH]c(NCc2ccc(Cl)c(Cl)c2)nc2cnn(-c3ncccn3)c12 [Compound 139, 5-((3,4-Dichlorobenzyl)amino)-1-(pyrimidin-2-yl)-1H-pyrazolo[4,3-d]pyrimidin-7(6H)-one] | > 64 | > 64 | > 64 | > 64 | > 64 | > 64 | > 64 | >64 µg/mL | – | – | – | –

The next lines start with the values.

Row | MIC [1] [µg/mL] | MIC [2] [µg/mL] | MIC [3] [µg/mL] | MIC [4] [µg/mL] | MIC ([5]; read-out: MIC NRS 384 (MRSA)) [µg/mL] | MIC [6, 8] [µg/mL] | MIC [7] [µg/mL] | MIC E. coli ATCC 25922 + 4 mM EDTA [7] | MIC ([5]; MHIIB, read-out: MIC against S. aureus NRS 384 (MRSA)) [µg/mL] | MIC ([6]; MHIIB, read-out: MIC against E. faecium ATCC 700221 (VRE)) [µg/mL] | MIC NRS 384 (MRSA) [5] | MIC E. faecium ATCC 700221 (VRE) [6] | SMILES
13 | 32 (≈ 80.8 µM) | > 64 | > 64 | > 64 | > 64 | > 64 | > 64 | >64 µg/mL | – | – | – | – | COC(=O)C(C)n1cc2nc(NCc3ccc(Cl)c(Cl)c3)[nH]c(=O)c2n1 (centres unmarked) [Compound 224, Methyl 2-(5-((3,4-dichlorobenzyl)amino)-7-oxo-6,7-dihydro-2H-pyrazolo[4,3-d]pyrimidin-2-yl)propanoate]
14 | 16 (≈ 40.4 µM) | > 64 | > 64 | 16 (≈ 40.4 µM) | 32 (≈ 80.8 µM) | 16 (≈ 40.4 µM) | > 64 | >64 µg/mL | – | – | – | – | COC(=O)CCn1cc2nc(NCc3ccc(Cl)c(Cl)c3)[nH]c(=O)c2n1 [Compound 232, Methyl 3-(5-((3,4-dichlorobenzyl)amino)-7-oxo-6,7-dihydro-2H-pyrazolo[4,3-d]pyrimidin-2-yl)propanoate]
15 | 2 | 4 | 2 | 1 | 2 | 1 | > 64 | 32 µg/mL | – | – | – | – | Cl.Cl.O=c1[nH]c(NCc2ccc(Cl)c(Cl)c2)nc2cnn(C3CCN(Cc4cccnc4)CC3)c12 [Compound 245, 5-((3,4-Dichlorobenzyl)amino)-1-(1-(pyridin-3-ylmethyl)piperidin-4-yl)-1H-pyrazolo[4,3-d]pyrimidin-7(6H)-one dihydrochloride]
16 | 4 (≈ 9.41 µM) | 16 (≈ 37.6 µM) | 32 (≈ 75.2 µM) | 8 (≈ 18.8 µM) | 32 (≈ 75.2 µM) | 16 (≈ 37.6 µM) | > 64 | >64 µg/mL | – | – | – | – | O=C(CCCCn1ncc2nc(NCc3ccc(Cl)c(Cl)c3)[nH]c(=O)c21)NO [Compound 217, 5-[5-[(3,4-dichlorophenyl)methylamino]-7-oxo-6H-pyrazolo[4,3-d]pyrimidin-1-yl]pentanehydroxamic acid]
17 | 16 | 64 | 32 | 16 | 64 | 16 | > 64 | >64 µg/mL | – | – | – | – | Cl.O=C([C@@H]1C[C@@H](O)CN1)N1CCC(n2ncc3nc(NCc4ccc(Cl)c(Cl)c4)[nH]c(=O)c32)CC1 [Compound 274, 5-((3,4-dichlorobenzyl)amino)-1-(1-((2S,4R)-4-hydroxypyrrolidine-2-carbonyl)piperidin-4-yl)-1H-pyrazolo[4,3-d]pyrimidin-7(6H)-one hydrochloride]
18 | 8 (≈ 18.9 µM) | 32 (≈ 75.4 µM) | 32 (≈ 75.4 µM) | 32 (≈ 75.4 µM) | 32 (≈ 75.4 µM) | 16 (≈ 37.7 µM) | > 64 | >64 µg/mL | – | – | – | – | CC(CCCn1ncc2nc(NCc3ccc(Cl)c(Cl)c3)[nH]c(=O)c21)C(=O)O (centres unmarked) [Compound 202, 5-(5-((3,4-dichlorobenzyl)amino)-7-oxo-6,7-dihydro-1H-pyrazolo[4,3-d]pyrimidin-1-yl)-2-methylpentanoic acid]
